Reference: PubChem BioAssay AID248 (DTP/NCI, 2004)
Where “and” joins values, the source holds several entries; their conditions need not be identical. Identical values can stand only once. Toxic doses and inconclusive results are not listed. Cut-off read from the data, not from the text of the source: active = T/C of 150% or more; inactive = T/C below 125%.

System: L1210 leukemia ip in BDF1 mice, survival T/C
Experiment: NCI In Vivo Anticancer Drug Screen. Data for tumor model L1210 Leukemia (intraperitoneal) in B6D2F1 (BDF1) mice
Settings: endpoint: mean survival time, higher = longer survival
Summary of the method: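 Each compound was tested against a transplantable tumor grown in mice. The endpoint was survival, with treated animals benchmarked against vehicle controls as a simple ratio.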

[1] = dose: 12.5 mg/kg/injection, schedule: Q04DX003 (ip), vehicle: saline with Tween-80
[2] = dose: 100.0 mg/kg/injection, schedule: Q01DX001 (ip), vehicle: saline
[3] = dose: 200.0 mg/kg/injection, schedule: Q01DX001 (ip), vehicle: saline
[4] = dose: 400.0 mg/kg/injection, schedule: Q01DX001 (ip), vehicle: saline
[5] = dose: 25.0 mg/kg/injection, schedule: Q04DX002 (ip), vehicle: Klucel (hydroxypropylcellulose) (HPC)
[6] = dose: 50.0 mg/kg/injection, schedule: Q04DX002 (ip), vehicle: Klucel (hydroxypropylcellulose) (HPC)
[7] = dose: 100.0 mg/kg/injection, schedule: Q04DX002 (ip), vehicle: Klucel (hydroxypropylcellulose) (HPC)
[8] = dose: 100.0 mg/kg/injection, schedule: Q01DX001 (ip), vehicle: carboxymethylcellulose (CMC)
[9] = dose: 200.0 mg/kg/injection, schedule: Q01DX001 (ip), vehicle: carboxymethylcellulose (CMC)
[10] = dose: 400.0 mg/kg/injection, schedule: Q01DX001 (ip), vehicle: carboxymethylcellulose (CMC)
[11] = dose: 25.0 mg/kg/injection, schedule: Q01DX009 (ip), vehicle: saline with Tween-80
[12] = dose: 100.0 mg/kg/injection, schedule: Q01DX009 (ip), vehicle: saline with Tween-80
[13] = dose: 200.0 mg/kg/injection, schedule: Q01DX009 (ip), vehicle: saline with Tween-80
[14] = dose: 200.0 mg/kg/injection, schedule: Q04DX002 (ip), vehicle: Klucel (hydroxypropylcellulose) (HPC)
[15] = dose: 400.0 mg/kg/injection, schedule: Q04DX002 (ip), vehicle: Klucel (hydroxypropylcellulose) (HPC)
[16] = dose: 400.0 mg/kg/injection, schedule: Q01DX009 (ip), vehicle: saline with Tween-80
[17] = dose: 100.0 mg/kg/injection, schedule: Q01DX009 (ip), vehicle: saline

Measured: T/C

CC1c2c(c3ccccc3n2C)CC[N+]1(C)C (stereo not given)
inactive: dose: 12.5 mg/kg/injection, schedule: Q01DX009 (ip), vehicle: carboxymethylcellulose (CMC) 109 % of control and 88 % of control | dose: 25.0 mg/kg/injection, schedule: Q01DX009 (ip), vehicle: carboxymethylcellulose (CMC) 115 % of control and 86 % of control | dose: 25.0 mg/kg/injection, schedule: Q04DX002 (ip), vehicle: carboxymethylcellulose (CMC) 102 % of control and 103 % of control | dose: 25.0 mg/kg/injection, schedule: Q04DX003 (ip), vehicle: carboxymethylcellulose (CMC) 102 % of control | dose: 50.0 mg/kg/injection, schedule: Q01DX009 (ip), vehicle: carboxymethylcellulose (CMC) 94 % of control and 88 % of control | dose: 50.0 mg/kg/injection, schedule: Q04DX002 (ip), vehicle: carboxymethylcellulose (CMC) 94 % of control and 99 % of control | dose: 50.0 mg/kg/injection, schedule: Q04DX003 (ip), vehicle: carboxymethylcellulose (CMC) 105 % of control | dose: 100.0 mg/kg/injection, schedule: Q04DX003 (ip), vehicle: carboxymethylcellulose (CMC) 116 % of control

Cc1cc2nc(CBr)c(CBr)nc2cc1C
inactive: dose: 3.12 mg/kg/injection, schedule: Q01DX009 (ip), vehicle: acetone 100 % of control | dose: 6.25 mg/kg/injection, schedule: Q01DX009 (ip), vehicle: acetone 94 % of control | dose: 6.25 mg/kg/injection, schedule: Q04DX003 (ip), vehicle: Klucel (hydroxypropylcellulose) (HPC) 95 % of control | dose: 12.5 mg/kg/injection, schedule: Q04DX003 (ip), vehicle: Klucel (hydroxypropylcellulose) (HPC) 101 % of control | [1] 98 % of control | dose: 25.0 mg/kg/injection, schedule: Q04DX003 (ip), vehicle: Klucel (hydroxypropylcellulose) (HPC) 93 % of control

CN=C(N)Nc1ccc(C(=O)Oc2ccc([N+](=O)[O-])cc2)cc1
inactive: dose: 25.0 mg/kg/injection, schedule: Q01DX009 (ip), vehicle: water 112 % of control | dose: 50.0 mg/kg/injection, schedule: Q01DX009 (ip), vehicle: water 102 % of control

Cn1nnc(C(N)=O)n1
inactive: [2] 93 % of control | [3] 98 % of control | [4] 94 % of control

Cc1ccc(B(O)O)cc1
inactive: dose: 50.0 mg/kg/injection, schedule: Q04DX002 (ip), vehicle: alcohol 107 % of control | dose: 100.0 mg/kg/injection, schedule: Q04DX002 (ip), vehicle: alcohol 101 % of control | dose: 200.0 mg/kg/injection, schedule: Q04DX002 (ip), vehicle: alcohol 101 % of control

O=C1c2ccccc2C(=O)N1CC1CO1 (stereo not given)
inactive: [5] 90 % of control | [6] 93 % of control | [7] 93 % of control

CC(=O)OC1C(C)OC(n2cnc3c(=S)nc[nH]c32)C1OC(C)=O (stereo not given)
inactive: dose: 50.0 mg/kg/injection, schedule: Q01DX001 (ip), vehicle: carboxymethylcellulose (CMC) 103 % of control | [8] 101 % of control | [9] 108 % of control | [10] 106 % of control

O=C1c2ccccc2C(=O)N1CCOCCOCCN1C(=O)c2ccccc2C1=O
inactive: [11] 108 % of control | dose: 50.0 mg/kg/injection, schedule: Q01DX009 (ip), vehicle: saline with Tween-80 96 % of control and 92 % of control | [12] 88 % of control and 92 % of control | [7] 98 % of control | [13] 98 % of control | [14] 98 % of control | [15] 98 % of control

CN(C)CCC(C=NCC(CCN(C)C)(CCN(C)C)c1cccc2ccccc12)(CCN(C)C)c1cccc2ccccc12
inactive: dose: 12.5 mg/kg/injection, schedule: Q01DX009 (ip), vehicle: saline with Tween-80 90 % of control | [1] 102 % of control | [11] 91 % of control | dose: 25.0 mg/kg/injection, schedule: Q04DX003 (ip), vehicle: saline with Tween-80 98 % of control

O=C(O)CCOc1ccccc1Cl
inactive: [12] 91 % of control | [7] 98 % of control | [13] 95 % of control | [14] 95 % of control | [16] 93 % of control | [15] 106 % of control

CC[P+](C)(CC)c1ccccc1
inactive: dose: 15.0 mg/kg/injection, schedule: Q01DX001 (ip), vehicle: saline 98 % of control | dose: 30.0 mg/kg/injection, schedule: Q01DX001 (ip), vehicle: saline 101 % of control

CC(=O)Nc1ccccc1C(=O)O
inactive: [12] 100 % of control | [13] 97 % of control | [16] 100 % of control

O=C(c1ccccc1)C1CSC1Br (stereo not given)
inactive: dose: 100.0 mg/kg/injection, schedule: Q04DX003 (ip), vehicle: saline with Tween-80 102 % of control | dose: 200.0 mg/kg/injection, schedule: Q04DX003 (ip), vehicle: saline with Tween-80 98 % of control | dose: 400.0 mg/kg/injection, schedule: Q04DX003 (ip), vehicle: saline with Tween-80 100 % of control

CC(C)COC(=O)C(C)OC(=O)OCCOCCOC(=O)OC(C)C(=O)OCC(C)C (stereo not given)
inactive: [2] 100 % of control | [3] 102 % of control | [4] 100 % of control

O=C(Nc1ccc(Cl)cc1)Oc1c(Cl)cc(S(=O)(=O)F)cc1Cl
inactive: [5] 94 % of control | dose: 50.0 mg/kg/injection, schedule: Q01DX009 (ip), vehicle: Klucel (hydroxypropylcellulose) (HPC) 97 % of control | [6] 91 % of control | dose: 100.0 mg/kg/injection, schedule: Q01DX009 (ip), vehicle: Klucel (hydroxypropylcellulose) (HPC) 97 % of control | [7] 99 % of control and 91 % of control

CCOP(=S)(N1CC1)N1CC1
inactive: [8] 95 % of control | [9] 95 % of control | [10] 94 % of control

CC(=O)OC1=COc2c(Cl)ccc3cccc1c23
inactive: dose: 100.0 mg/kg/injection, schedule: Q01DX001 (ip), vehicle: Klucel (hydroxypropylcellulose) (HPC) 103 % of control | dose: 200.0 mg/kg/injection, schedule: Q01DX001 (ip), vehicle: Klucel (hydroxypropylcellulose) (HPC) 109 % of control | dose: 400.0 mg/kg/injection, schedule: Q01DX001 (ip), vehicle: Klucel (hydroxypropylcellulose) (HPC) 97 % of control

CCC(=O)c1ccc(Cc2ccc(C(=O)CC)cc2)cc1
inactive: dose: 125.0 mg/kg/injection, schedule: Q01DX001 (ip), vehicle: saline 104 % of control | dose: 250.0 mg/kg/injection, schedule: Q01DX001 (ip), vehicle: saline 101 % of control | dose: 500.0 mg/kg/injection, schedule: Q01DX001 (ip), vehicle: saline 93 % of control | dose: 1000.0 mg/kg/injection, schedule: Q01DX001 (ip), vehicle: saline 98 % of control

NC(=O)NNC1OCC(O)C(O)C1O (stereo not given)
inactive: [17] 90 % of control | dose: 100.0 mg/kg/injection, schedule: Q04DX003 (ip), vehicle: water 96 % of control | dose: 200.0 mg/kg/injection, schedule: Q01DX009 (ip), vehicle: saline 95 % of control | dose: 200.0 mg/kg/injection, schedule: Q04DX003 (ip), vehicle: water 96 % of control | dose: 400.0 mg/kg/injection, schedule: Q01DX009 (ip), vehicle: saline 97 % of control | dose: 400.0 mg/kg/injection, schedule: Q04DX003 (ip), vehicle: water 97 % of control

CC1CC1C(=O)Cl (stereo not given)
inactive: dose: 50.0 mg/kg/injection, schedule: Q01DX009 (ip), vehicle: saline 97 % of control | [17] 101 % of control
